Results on one substance are retold here after patent publication US20040043498A1, “Reagent for determining singlet oxygen” (priority 2003, published 2004).

This data set in a line: Light stability of DMAX-EP (photobleaching under continuous excitation light). Conditions: 0.1 M phosphate buffer pH 7.4, 0.1% DMSO, 37° C. Type of data set: physicochemical. Here is the method: 5.0 μM aqueous solutions of DMAX-EP (endoperoxide of Compound 11 in the above scheme) and DPAX-1-EP (endoperoxide of Compound 13 described in International Patent Publication WO99/51586, Example 1) [0.1 M phosphate buffer (pH 7.4) containing 0.1% DMSO as a cosolvent] were each placed in a fluorescent cell and exposed to an excitation light of 491 nm at 37° C. with stirring, and fluorescence was measured at 620 nm by using a fluorometer while the solution was continuously exposed to the excitation light.

As to DMAX-EP, the “Photobleaching relative to DPAX-1-EP” value (5.0 μM aqueous solution, excitation 491 nm, fluorescence at 620 nm) was found to be 5.4 times slower. The Light stability result (5.0 μM, continuous 491 nm excitation) is listed as “excellent light stability”.
